Experiments:
Type in all cases: cell-based, human
[1] = tested on: prostate cancer cell lines; assay: Effect of TK1 shRNA on proliferation of prostate cancer cell lines (all cultures); conditions: for cells remaining 12 days post infection: all cultures
Text: FIG. 2. TK1 overexpression synergizes with AKT1 to promote hormone independent prostate cancer. a) Androgen independent tumor formation. LHSR-AR cells were infected with the indicated constructs and injected subcutaneously into castrated mice, except where indicated. M-myristoylated; F-Flag tagged. b) AKT1 and TK1 promote nuclear translocation of AR independent of androgen. H&E and immunhistochemical staining for AR in subcutaneous tumor sections derived from LHSR-AR cells infected with the indicated constructs. Staining of androgen dependent GFP tumor is shown as control. Minimum of 3 tumors were stained per sample and representative images are shown. c) TK1 chromosomal amplification in hormone sensitive and refractory tumors. DNA from 16 hormone sensitive (HS) and 23 hormone refractory (HR) human prostate tumors (from FIG. 1b) were hybridized onto SNP arrays and analyzed for TK1 copy number gain (CNG). The number and percentage of tumors with and without amplification are indicated. d) TK1 protein expression in hormone sensitive and refractory tumors. Prostate tumor microarrays containing 73 hormone sensitive (HS) and 11 hormone resistant (HS) tumor cores were analyzed for TK1 protein expression by immunohistochemistry. The number and percentage of tumors negative and positive for TK1 expression are indicated. d) Immunoblot analysis for TK1 expression in the indicated prostate cancer cell lines. Actin was used to control for loading. e) Effect of TK1 suppression on the proliferation of prostate cancer cells. […] Relative cell number is normalized to the shGFP control.
Stable suppression of TK1 and AR were accomplished by using the pLKO.1-puro lentiviral shRNA constructs previously described {Moffat, 2006 #52}. The sequences targeted by the hairpins are as follows: shTK1-3, […] (SEQ ID NO: 1); shTK1-4, […] (SEQ ID NO: 2); shTK1-5, […] (SEQ ID NO: 3); shAR-1, […] […] Viable cells were counted using a Coulter Counter.
(§1) Next, we determined whether suppressing the expression of TK1 in prostate cancer cell lines that overexpress TK1 reverses their ability to proliferate or survive. […]

[2] = tested on: C4-2 cells; assay: Effect of TK1 suppression by shRNA on cell number of prostate cancer cells (viable cells counted with Coulter Counter); conditions: C4-2 cultures, relative to shGFP control
Text: (§2) FIG. 2. TK1 overexpression synergizes with AKT1 to promote hormone independent prostate cancer. a) Androgen independent tumor formation. LHSR-AR cells were infected with the indicated constructs and injected subcutaneously into castrated mice, except where indicated. M-myristoylated; F-Flag tagged. b) AKT1 and TK1 promote nuclear translocation of AR independent of androgen. H&E and immunhistochemical staining for AR in subcutaneous tumor sections derived from LHSR-AR cells infected with the indicated constructs. Staining of androgen dependent GFP tumor is shown as control. Minimum of 3 tumors were stained per sample and representative images are shown. c) TK1 chromosomal amplification in hormone sensitive and refractory tumors. DNA from 16 hormone sensitive (HS) and 23 hormone refractory (HR) human prostate tumors (from FIG. 1b) were hybridized onto SNP arrays and analyzed for TK1 copy number gain (CNG). The number and percentage of tumors with and without amplification are indicated. d) TK1 protein expression in hormone sensitive and refractory tumors. Prostate tumor microarrays containing 73 hormone sensitive (HS) and 11 hormone resistant (HS) tumor cores were analyzed for TK1 protein expression by immunohistochemistry. The number and percentage of tumors negative and positive for TK1 expression are indicated. d) Immunoblot analysis for TK1 expression in the indicated prostate cancer cell lines. Actin was used to control for loading. e) Effect of TK1 suppression on the proliferation of prostate cancer cells. Cells were infected with three different hairpins targeting TK1 and a control hairpin targeting GFP, and cell numbers determined 5 days post infection. Relative cell number is normalized to the shGFP control.
(§3) LHSR-AR {Berger, 2004 #15}, LNCaP {Horoszewicz, 1980 #23}, C4-2 {Wu, 1994 #18}, CL-1 {Patel, 2000 #16}, LNCaP-abl {Culig, 1999 #49} and LAPC4 {Klein, 1997 #34} cells have previously been described. LHSR-AR cells were cultured in PrEGM with growth supplements (Lonza). LNCaP were cultured in RPMI supplemented with 10% fetal bovine serum, 1 mM sodium pyruvate and 10 mM Hepes. C4-2, CL-1 and LNCaP-abl were cultured in phenol red free RMPI supplemented with 10% charcoal stripped fetal bovine serum, 1 mM sodium pyruvate and 10 mM Hepes. LAPC4 cells were cultured in IMDM supplemented with 10% fetal bovine serum and 1 nM R1881.
(§4) Stable suppression of TK1 and AR were accomplished by using the pLKO.1-puro lentiviral shRNA constructs previously described {Moffat, 2006 #52}. The sequences targeted by the hairpins are as follows: shTK1-3, […] […] Viable cells were counted using a Coulter Counter.
as §1

[3] = tested on: CL-1 cells; assay: as above; conditions: relative to shGFP control
Text: as §2, §3, §4, §1

[4] = tested on: TK1; assay: Androgen induction of TK1 protein expression in LNCaP cells (immunoblot); conditions: LNCaP cells in hormone depleted medium, 10 nM R1881, immunoblot
Experimental: FIG. 3. […] Androgen responsive LNCaP cells cultured in hormone depleted medium were treated with 10 nM of the synthetic androgen, R1881, for the indicated times, and TK1 expression was assayed by immunoblot analysis. […] Small hairpins targeting AR were introduced into LNCaP cells infected with TK1, or control uninfected LNCaP cells. Cell proliferation was monitored. Relative proliferation is normalized to the shGFP control.
(§5) Immunoblots were performed as previously described {Boehm, 2005 #51}. The following antibodies were used: TK1 (Abcam, ab57757), AR (Santa Cruz, sc-7305), Flag (Sigma, M2), PDK1 (Becton Dickinson, 611070), p-PDK1 (Becton Dickinson, 558395), AKT (Cell Signaling, 9272), p-AKT1-Thr308 (Cell Signaling, 4056), p-AKT1-Ser473 (Cell Signaling, 9271), p-AKT1-Thr450 (Cell Signaling, 9267), p-AKT1-Tyr326 (Cell Signaling, 2968), Actin (Santa Cruz, sc-47778).
TK1 has been reported to be induced by androgens in the rat prostate. […] To elucidate whether TK1 is sufficient to replace AR signaling in promoting cell proliferation and survival, we silenced AR expression in LNCaP cells by RNAi in the presence or absence of ectopic TK1 expression, and monitored cell death.

[5] = tested on: TK1; assay: Suppression of TK1 expression by shRNA in prostate cancer cell lines; conditions: lentiviral shRNA
Experimental: as §5
Stable suppression of TK1 and AR were accomplished by using the pLKO.1-puro lentiviral shRNA constructs previously described {Moffat, 2006 #52}. The sequences targeted by the hairpins are as follows: shTK1-3, […] (SEQ ID NO: 1); shTK1-4, […] (SEQ ID NO: 2); shTK1-5, […] (SEQ ID NO: 3); shAR-1, […] (SEQ ID NO: 4); shAR-4, […] (SEQ ID NO: 5); shAR-5, […] (SEQ ID NO: 6); shGFP, Experiments were performed in duplicate, in both the presence and absence of 1.5 ug/ml puromycin to monitor infection efficiency. Viable cells were counted using a Coulter Counter.
as §1

| Compound | cells remaining 12 days post infection [1] | cell number 5 days post infection [2] | cell number 5 days post infection [3] | TK1 protein expression [4] | proliferation ([1]; prostate cancer cell lines, 5 days post infection) | suppression of TK1 expression [5] |
| --- | --- | --- | --- | --- | --- | --- |
| shTK1-4: pLKO.1-puro lentiviral shRNA targeting TK1 sequence GGGAAGCCGCCTATACCAAGA (SEQ ID NO: 2) (target site or template, no part of the molecule) | few cells remaining | reduced cell number | did not significantly affect |  |  |  |
| C[C@]1(O)CC[C@H]2[C@@H]3CCC4=CC(=O)CCC4=C3C=C[C@@]21C [R1881] |  |  |  | androgen induced |  |  |
| shTK1-5: pLKO.1-puro lentiviral shRNA targeting TK1 sequence TGTCGGCTCTGCTACTTCAAG (SEQ ID NO: 3) (target site or template, no part of the molecule) | few cells remaining | reduced cell number | did not significantly affect |  |  |  |
| shTK1-3: pLKO.1-puro lentiviral shRNA targeting TK1 sequence AGACCGTAATTGTGGCTGCAC (SEQ ID NO: 1) (target site or template, no part of the molecule) |  |  |  |  | did not affect proliferation | did not efficiently suppress TK1 expression |

From patent US20110206689A1, “Molecular Determinants Associated With Prostate Cancer And Methods Of Use Thereof” (Dana-Farber Cancer Institute, Inc., priority 2010, published 2011)
